We go through two compounds from patent US20170086467A1, “MOLLUSCICIDE COMPOSITIONS AND METHODS OF USE THEREOF” (ECOFLORA AGRO SAS, priority 2014, published 2017).

For data set [1] the following is noted: 200° C.; one hour drying.
Description: Caffeine was also quantitated by HPLC to determine the thermal stability of the molecule.
Data set [2] concerns banana tree snails (African snails). The data set is described as follows: Mortality of banana plantation snails on treated plates in a shade house. The class given is in vivo. The conditions noted are these: T7, 2 g/plate. As for the experimental part:
The experiments were conducted in a shade house. Plastic plates and baskets for cover were used to keep the snails in contact with the products. Live snails were obtained by collection/pick up in a banana plantation. Approximately 250 snails were captured early in the morning, the time of day when they are still found in large numbers on the leaves and trunks of banana plants.
BROMOREX® 9.37 is a liquid formulation comprising capsicum extract and mustard essential oil. metaldehyde is a chemical molluscicide.
Four plates per treatment were randomly arranged on a shelf in the shade house. At the bottom of each plate small portions of banana leaves, papaya, and two slices of ripe bananas were placed. 20 mL of each sample was poured into each plate. Eight live snails of the same morphology and size were placed on each plate. Each treatment was repeated 4 times. The plates were covered with baskets that promoted good ventilation and prevented the snails from escaping. The treatments were carried out in late afternoon.
The behavior of snails in contact with the products as well as the mortality of the snails were recorded and interpreted. The data on the mortality of snails to 5 days after application of the products were statistically analyzed using the R software version 3.0.1. The separation of averages for significant effects was made using the Newman-Keuls test at 5% significant level.

SMILES strings stand for the structures. Like-named read-outs stand apart in the source and are kept apart here.

As for `Cn1c(=O)c2c(ncn2C)n(C)c1=O` [caffeine, 3,7-dihydro-1,3,7-trimethyl-1H-purine-2,6-dione], the “thermal stability (in words)” value was “stable”. The “thermal stability (in words)” value in data set [1] was “Pyrolysis and caffeine sublimation were observed”.

Turning to `CC1OC(C)OC(C)OC(C)O1` (stereo not shown) [metaldehyde], the mortality rate is 6.25% in data set [2] (3 hours after treatment) and 34% in data set [2] (after 5 days).
